Results published in BigSolDB 2.1.

Cc1nc2n(c(=O)c1CCN1CCC(c3noc4cc(F)ccc34)CC1)CCCC2
solubility (mole fraction)
Conditions | in ethanol | in methanol | in water
283.15 K | 0.00105 | 0.00239 | 4.63e-08
283.16 K | 0.00104 | 0.00239 | 4.63e-08
288.15 K | 0.00138 | 0.00294 | 6.24e-08
288.16 K | 0.00138 | 0.00294 | 6.24e-08
293.15 K | 0.0017 | 0.00363 | 8.15e-08
293.16 K | 0.0017 | 0.00363 | 8.15e-08
298.15 K | 0.00216 | 0.00443 | 1.08e-07
298.16 K | – | 0.00443 | 1.08e-07
303.15 K | 0.00272 | 0.00546 | 1.38e-07
303.16 K | – | 0.00546 | 1.38e-07
308.15 K | 0.0035 | 0.00673 | 1.83e-07
308.16 K | – | 0.00674 | 1.83e-07
313.15 K | 0.00438 | 0.0083 | 2.38e-07
313.16 K | – | 0.0083 | 2.38e-07
318.15 K | – | 0.0101 | 2.91e-07
318.16 K | – | 0.0101 | 2.91e-07
323.15 K | – | 0.0121 | 3.81e-07
323.16 K | – | 0.0121 | 3.81e-07
328.15 K | – | 0.0148 | 4.79e-07
328.16 K | – | 0.0148 | 4.79e-07
